Test results as given in patent US20170334899A1, “AMINO-SUBSTITUTED ISOTHIAZOLES” (Bayer Pharma Aktiengesellschaft, priority 2014, published 2017).

What was measured:
[1] = target: T1, catalytic domain of human Bub1 (amino acids 704-1085) (Homo sapiens, UniProt O43683); test: Bub1 kinase assay (TR-FRET); format: biochemical; conditions: 10 μM ATP, avg, read-out: Bub1 avg (IC50 [mol/l])
T1 construct: catalytic domain of human Bub1 (amino acids 704-1085); His6 (N); made in house; host or cells: insect cells (Hi5)
Procedure, shortened: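 Readout is the 665/620 nm TR-FRET ratio from anti-phosphoserine antibody, Eu-labelled anti-mouse IgG and streptavidin-XL665, scaled between no-enzyme and uninhibited controls. Reaction: 1 μM biotinylated peptide, 10 μM ATP, 60 min, 22 °C, after 15 min compound preincubation with His6-Bub1 (704-1085, insect-expressed, ~200 ng/ml).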

CDK2/CycE = target: T2, CDK2/CycE (Homo sapiens, UniProt P24941); test: CDK2/CycE kinase assay (TR-FRET); format: biochemical; conditions: avg, read-out: CDK2 avg (IC50 [mol/l])
T2 construct: GST; purchased ProQinase GmbH (Freiburg, Germany); host or cells: insect cells (Sf9)
Procedure, shortened: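 Read-out is a TR-FRET 665/620 nm emission ratio from EDTA-stopped reactions detected with anti-pRB(pSer807/pSer811), Eu-labelled anti-mouse IgG and streptavidin-XL665, scaled between no-enzyme and uninhibited wells. Reaction: Sf9-expressed GST-CDK2/GST-CycE, 15 min compound preincubation, 10 μM ATP, 0.75 μM biotin-peptide, 25 min, 22° C., pH 8.0 Tris buffer.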

T1 sequence (O43683 704-1085): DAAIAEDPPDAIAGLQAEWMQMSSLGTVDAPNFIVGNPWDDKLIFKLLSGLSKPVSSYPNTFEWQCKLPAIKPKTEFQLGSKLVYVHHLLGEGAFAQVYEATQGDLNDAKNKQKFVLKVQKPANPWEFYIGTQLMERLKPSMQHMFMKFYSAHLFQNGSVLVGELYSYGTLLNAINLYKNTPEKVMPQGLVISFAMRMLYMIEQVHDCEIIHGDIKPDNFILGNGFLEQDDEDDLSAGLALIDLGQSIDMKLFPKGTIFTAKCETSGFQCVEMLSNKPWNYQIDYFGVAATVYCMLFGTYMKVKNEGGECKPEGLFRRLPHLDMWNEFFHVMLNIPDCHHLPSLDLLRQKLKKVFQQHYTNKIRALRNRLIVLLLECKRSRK

IC50 [1]: > 20 µM | IC50 (CDK2/CycE): > 20 µM
Structure (SMILES): Cc1nsc(Nc2cnc(C(F)(F)F)cn2)c1C(=O)Nc1ccc(OCCNC(=O)OC(C)(C)C)nc1 [Example 192, tert-butyl {2-[(5-{[(3-methyl-5-{[5-(trifluoromethyl)pyrazin-2-yl]amino}-1,2-thiazol-4-yl)carbonyl]amino}pyridin-2-yl)oxy]ethyl}carbamate]
